Laboratory results published in US6489481B1, “Method for treating neurological disorders” (AstraZeneca AB, priority 1998, dated 2002).
Counter-ions that a name gives are not always drawn.

Key:
emopamil binding protein = biological target: T1, emopamil binding protein (Cavia porcellus, UniProt Q60490); assay: Displacement of 3H-emopamil binding to guinea pig liver membranes; details: 0.96 nM (-)-3H-emopamil
T1 construct: Guinea pig liver membranes: 40 mg/mL original wet weight; from tissue; host or cells: guinea pig liver membranes (male guinea pigs)
T1 sequence (Q60490 1-229): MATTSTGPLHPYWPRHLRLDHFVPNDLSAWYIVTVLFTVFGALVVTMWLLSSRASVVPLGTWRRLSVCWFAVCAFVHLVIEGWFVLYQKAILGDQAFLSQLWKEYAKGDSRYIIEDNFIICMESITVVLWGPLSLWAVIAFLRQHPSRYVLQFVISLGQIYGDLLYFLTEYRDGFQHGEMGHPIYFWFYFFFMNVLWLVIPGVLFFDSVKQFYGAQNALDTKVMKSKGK
Experimental: Displacement of ^3H-Emopamil Binding to Guinea Pig Liver Membranes
The method of displacement of ^3H-emopamil binding was a modification of Zech et al (1991) Eur. J. Pharm. 208:119-130.
The Guinea-pig liver membranes were prepared as follows: Male guinea pigs were sacrificed by CO2 asphyxiation with dry ice. The livers were quickly excised and weighed and rinsed in membrane preparation buffer containing 10 mM Hepes, 1 mM Tris base-EDTA, 250 mM sucrose, pH 7.4. The livers were then minced homogenized in 10 times volume with a motor driven Teflon-glass homogenizer with three strokes on ice. The homogenate was centrifuged at 1000×g in a SS34 rotor for 5 minutes at 4° C. The supernatant was filtered through 4 layers of gauze and then centrifuged at 8000×g for 10 minutes 4° C. This resulting supernatant was centrifuged at 40,000×g for 15 minutes at 4° C. The resulting pellet was resuspended in assay buffer and centrifuged again at 40,000×g for 15 minutes at 4° C. This pellet was resuspended in assay buffer (2.5 fold with respect to original wet weight) and homogenized with one stroke with the Teflon-glass homogenizer. Aliquots of 1 mL were stored at −70° C.
The displacement assay was performed as follows: The reaction mixture contained: Assay buffer: 10 mM Tris-HCl, 0.1 mM phenylmethylsulfonyl fluoride (PMSF), 0.2% bovine serum albumin (BSA), pH 7.4 at […]. […]

PC12 cells = assay: Inhibition of apoptosis in PC12 cells induced by NGF withdrawal (Cell Death Detection ELISA); format: cell-based, rat
Experimental: Inhibition of Apoptosis in PC12 Cells Induced by NGF Withdrawal
Rat PC12 cells (ATCC Accession Number CRL-1721) were grown in RPMI0-1640 buffer containing 10% heat-inactivated Fetal Bovine Serum (FBS) and 1% L-glutamine (Gibco). Cells were plated in 100 mm Collagen I Falcon plates (Becton Dickinson)at a density of ˜1×10^6-2×10^6 and passed every other day at 1:10 ratio (cells were trypsinized and centrifuged at 1000 rpm for 5 min. Cells were resuspended and plated at the density of 1-2×10^6 cells). Tamoxifen was dissolved in DMSO at a concentration of 10 mM. Subsequent dilutions were done in PC12 cell growth medium containing 1% FBS. […]
Cells were harvested at various time points after the NGF withdrawal procedure to determine the time course of cell death. […] Compounds were used at various concentrations and the extent of apoptosis that occurred in the presence of compounds was expressed as a percentage relative to control cultures that were exposed to vehicle only. […]
Cell death was measured using a Cell Death Detection ELISA (Boehringer-Mannheim Cat# 1774425) according to manufacturers instructions.The ELISA is a photometric enzyme-immunoassay which determines the amount of cytoplasmic histone-associated-DNA-fragments after induced cell death. […]

mouse cortical neurons = assay: Inhibition of NMDA-induced death of mouse cortical neurons in primary cell culture (LDH); format: cell-based; details: result in words; NMDA-induced neuronal death is the patent's necrosis model
Experimental: Inhibition of NMDA-induced Death of Mouse Cortical Neurons in Primary Cell Culture
A glial feeder layer was prepared from post-natal day 1 or 2 mice. Cortices were dissected in a Ca^2+/Mg^2+-free balanced salt solution, minced, incubated in media stock (MS: GIBCO's MEM supplemented with bicarbonate, glucose, and glutamine) containing trypsin for 30 minutes at 37° C., and centrifuged at 1500 g for 5 minutes to produce a cell pellet. The pellet was re-suspended in plating media (MS supplemented with horse and fetal calf serum) and triturated with a glass pasteur pipette. Cells were plated in 24-well Falcon Primaria tissue culture dishes at a density of 0.5 hemispheres per plate. The dishes had been coated overnight with 10 mg/ml mouse laminin and 25 mg/ml poly-lysine, then washed three times with water. The glial feeder layer was maintained in a humidified atmosphere of 5% CO2/95% air at 37° C. for two weeks. […]
LDH activity was measured as follows: 50 ml of cell-culture media from each well was mixed with 200 ml 0.1 M KH2PO4 containing 30 mg NADH, in a 96-well microtitre plate. After 10 minutes at room temperature, 30 ml of 2.4 mM sodium pyruvate was added, and the absorbance of this solution at 340nm was immediately measured at 15 second intervals for approximately 6 minutes using a Molecular Devices Spectromax 250 plate-reader. […]

| IC50 (emopamil binding protein) | SMILES | percentage in the PC12 assay (extent of apoptosis relative to control) (PC12 cells; relative to vehicle-only control cultures, 100% = no inhibition of apoptosis, 0% = total inhibition) | inhibition of apoptosis (PC12 cells; result in words) | inhibition of necrosis (mouse cortical neurons) |
| --- | --- | --- | --- | --- |
| 75 nM | CC/C(=C(/c1ccc(OCCN(C)C)cc1)c1ccc(OC(=O)C(C)(C)C)cc1)c1ccccc1 [Example 11, 2,2-dimethyl-, 4-[1-[4-[2-(dimethylamino)ethoxy]phenyl]-2-phenyl-1-butenyl]phenyl Propanoic acid ester, (E)-] | 41% | – | – |
| – | CC/C(=C(\c1ccccc1)c1ccc(OCCN(C)C)cc1)c1ccccc1 [tamoxifen citrate] | – | inhibit both apoptosis and necrosis | inhibit both apoptosis and necrosis |
